ChEMBL document CHEMBL4507279, “Data for DCP probe BI-9627” (2021)

Legend:
[1] = target: Tyrosine-protein kinase ABL1 (Homo sapiens) (UniProt P00519); conditions: Compound concentration 1000.0 nM
[2] = target: Bone morphogenetic protein receptor type-1B (Homo sapiens) (UniProt O00238); conditions: Compound concentration 1000.0 nM
[3] = target: Serine/threonine-protein kinase BRSK2 (Homo sapiens) (UniProt Q8IWQ3); conditions: Compound concentration 1000.0 nM
[4] = target: Calcium/calmodulin-dependent protein kinase type II subunit beta (Homo sapiens) (UniProt Q13554); conditions: Compound concentration 1000.0 nM
[5] = target: Calcium/calmodulin-dependent protein kinase kinase 1 (Homo sapiens) (UniProt Q8N5S9); conditions: Compound concentration 1000.0 nM
[6] = target: Cyclin-dependent kinase 3 (Homo sapiens) (UniProt Q00526); conditions: Compound concentration 1000.0 nM
Cyclin-dependent kinase 3 (Homo sapiens), sequence (Q00526 whole entry, looked up): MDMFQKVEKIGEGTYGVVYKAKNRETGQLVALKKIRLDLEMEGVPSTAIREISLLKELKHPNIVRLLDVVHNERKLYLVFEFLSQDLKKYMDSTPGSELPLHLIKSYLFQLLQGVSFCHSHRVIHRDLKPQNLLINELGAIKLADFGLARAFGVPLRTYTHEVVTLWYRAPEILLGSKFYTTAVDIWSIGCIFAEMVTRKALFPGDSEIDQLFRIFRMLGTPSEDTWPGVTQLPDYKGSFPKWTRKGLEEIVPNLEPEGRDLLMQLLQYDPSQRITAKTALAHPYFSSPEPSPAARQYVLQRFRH

[7] = target: Cyclin-dependent kinase 4 (Homo sapiens) (UniProt P11802); conditions: Compound concentration 1000.0 nM
[8] = target: Dual specificity protein kinase CLK4 (Homo sapiens) (UniProt Q9HAZ1); conditions: Compound concentration 1000.0 nM
[9] = target: Death-associated protein kinase 3 (Homo sapiens) (UniProt O43293); conditions: Compound concentration 1000.0 nM
[10] = target: Serine/threonine-protein kinase DCLK3 (Homo sapiens) (UniProt Q9C098); conditions: Compound concentration 1000.0 nM
[11] = target: Dual specificity tyrosine-phosphorylation-regulated kinase 1B (Homo sapiens) (UniProt Q9Y463); conditions: Compound concentration 1000.0 nM
[12] = system: Epidermal growth factor receptor (Homo sapiens), P00533 [UNDEFINED MUTATION]; conditions: Compound concentration 1000.0 nM
Epidermal growth factor receptor (Homo sapiens), P00533 [UNDEFINED MUTATION], sequence (P00533 whole entry, looked up, change not shown): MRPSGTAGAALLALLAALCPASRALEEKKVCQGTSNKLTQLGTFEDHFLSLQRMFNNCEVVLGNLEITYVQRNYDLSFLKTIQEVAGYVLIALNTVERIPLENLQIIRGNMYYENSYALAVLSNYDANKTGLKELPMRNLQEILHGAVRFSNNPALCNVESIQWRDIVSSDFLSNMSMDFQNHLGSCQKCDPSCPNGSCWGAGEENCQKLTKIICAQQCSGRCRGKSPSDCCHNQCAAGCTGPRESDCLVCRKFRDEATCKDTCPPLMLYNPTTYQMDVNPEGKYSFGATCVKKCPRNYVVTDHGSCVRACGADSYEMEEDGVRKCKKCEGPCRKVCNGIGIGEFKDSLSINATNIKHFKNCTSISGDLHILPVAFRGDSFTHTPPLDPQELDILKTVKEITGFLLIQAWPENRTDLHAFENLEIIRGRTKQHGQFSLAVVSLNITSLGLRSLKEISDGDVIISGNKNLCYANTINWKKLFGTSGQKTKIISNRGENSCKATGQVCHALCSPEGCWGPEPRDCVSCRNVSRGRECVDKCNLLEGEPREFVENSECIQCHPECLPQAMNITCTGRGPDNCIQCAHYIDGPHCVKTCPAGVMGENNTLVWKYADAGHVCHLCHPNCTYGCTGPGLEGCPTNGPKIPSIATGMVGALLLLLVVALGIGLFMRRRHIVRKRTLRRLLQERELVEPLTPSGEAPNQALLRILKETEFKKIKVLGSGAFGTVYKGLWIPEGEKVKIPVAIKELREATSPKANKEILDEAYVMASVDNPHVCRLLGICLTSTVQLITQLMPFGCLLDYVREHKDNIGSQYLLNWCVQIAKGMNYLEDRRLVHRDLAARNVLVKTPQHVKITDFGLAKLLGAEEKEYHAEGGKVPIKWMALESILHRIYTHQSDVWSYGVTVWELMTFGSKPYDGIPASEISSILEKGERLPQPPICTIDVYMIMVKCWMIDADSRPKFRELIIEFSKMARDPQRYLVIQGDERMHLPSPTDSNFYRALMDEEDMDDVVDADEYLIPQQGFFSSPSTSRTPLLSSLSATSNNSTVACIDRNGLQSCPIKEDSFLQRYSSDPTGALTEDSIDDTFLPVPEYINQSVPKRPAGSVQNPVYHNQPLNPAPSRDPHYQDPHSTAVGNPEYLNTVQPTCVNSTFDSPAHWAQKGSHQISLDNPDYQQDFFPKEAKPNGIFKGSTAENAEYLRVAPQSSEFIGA

[13] = system: Epidermal growth factor receptor (Homo sapiens), P00533 [UNDEFINED MUTATION]; conditions: Compound concentration 1000.0 nM; remark: listed apart in the source
[14] = target: Ephrin type-A receptor 2 (Homo sapiens) (UniProt P29317); conditions: Compound concentration 1000.0 nM
Ephrin type-A receptor 2 (Homo sapiens), sequence (P29317 whole entry): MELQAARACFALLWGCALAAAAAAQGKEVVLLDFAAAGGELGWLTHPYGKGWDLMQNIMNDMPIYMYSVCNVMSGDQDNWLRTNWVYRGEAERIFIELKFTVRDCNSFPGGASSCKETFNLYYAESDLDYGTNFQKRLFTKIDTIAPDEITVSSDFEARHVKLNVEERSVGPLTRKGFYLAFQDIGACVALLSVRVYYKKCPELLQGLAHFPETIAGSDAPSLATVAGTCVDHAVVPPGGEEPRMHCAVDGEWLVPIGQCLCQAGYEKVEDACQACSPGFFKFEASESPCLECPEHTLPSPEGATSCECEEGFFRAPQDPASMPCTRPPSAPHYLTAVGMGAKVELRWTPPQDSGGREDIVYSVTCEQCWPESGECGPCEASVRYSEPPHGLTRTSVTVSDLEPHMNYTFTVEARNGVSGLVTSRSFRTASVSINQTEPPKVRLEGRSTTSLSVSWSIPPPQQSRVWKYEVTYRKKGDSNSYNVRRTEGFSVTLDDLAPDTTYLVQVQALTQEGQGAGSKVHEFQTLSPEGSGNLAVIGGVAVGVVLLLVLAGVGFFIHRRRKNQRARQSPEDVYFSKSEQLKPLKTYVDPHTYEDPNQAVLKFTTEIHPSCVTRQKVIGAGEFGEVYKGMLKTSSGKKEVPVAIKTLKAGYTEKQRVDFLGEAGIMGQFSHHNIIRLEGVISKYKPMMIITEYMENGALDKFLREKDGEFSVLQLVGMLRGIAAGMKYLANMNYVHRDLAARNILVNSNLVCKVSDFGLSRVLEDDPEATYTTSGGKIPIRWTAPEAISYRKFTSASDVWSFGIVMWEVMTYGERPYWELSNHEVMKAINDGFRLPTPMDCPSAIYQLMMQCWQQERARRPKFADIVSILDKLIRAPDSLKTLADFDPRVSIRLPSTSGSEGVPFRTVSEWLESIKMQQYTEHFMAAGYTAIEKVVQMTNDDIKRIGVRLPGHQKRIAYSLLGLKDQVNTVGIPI

[15] = target: Ephrin type-A receptor 4 (Homo sapiens) (UniProt P54764); conditions: Compound concentration 1000.0 nM
[16] = target: Receptor tyrosine-protein kinase erbB-3 (Homo sapiens) (UniProt P21860); conditions: Compound concentration 1000.0 nM
[17] = target: Fibroblast growth factor receptor 3 (Homo sapiens) (UniProt P22607); conditions: Compound concentration 1000.0 nM
[18] = system: Receptor-type tyrosine-protein kinase FLT3 (Homo sapiens), P36888 [D835H]; conditions: Compound concentration 1000.0 nM
[19] = system: Receptor-type tyrosine-protein kinase FLT3 (Homo sapiens), P36888 [N841I]; conditions: Compound concentration 1000.0 nM
[20] = system: Mast/stem cell growth factor receptor Kit (Homo sapiens), P10721 [A829P]; conditions: Compound concentration 1000.0 nM
[21] = target: LIM domain kinase 2 (Homo sapiens) (UniProt P53671); conditions: Compound concentration 1000.0 nM
[22] = target: Mitogen-activated protein kinase kinase kinase 11 (Homo sapiens) (UniProt Q16584); conditions: Compound concentration 1000.0 nM
[23] = target: Myosin-IIIb (Homo sapiens) (UniProt Q8WXR4); conditions: Compound concentration 1000.0 nM
[24] = target: Serine/threonine-protein kinase Nek11 (Homo sapiens) (UniProt Q8NG66); conditions: Compound concentration 1000.0 nM
[25] = target: Serine/threonine-protein kinase Nek2 (Homo sapiens) (UniProt P51955); conditions: Compound concentration 1000.0 nM
[26] = target: Cyclin-dependent kinase 17 (Homo sapiens) (UniProt Q00537); conditions: Compound concentration 1000.0 nM
[27] = target: Cyclin-dependent kinase 14 (Homo sapiens) (UniProt O94921); conditions: Compound concentration 1000.0 nM
[28] = target: cAMP-dependent protein kinase catalytic subunit alpha (Homo sapiens) (UniProt P17612); conditions: Compound concentration 1000.0 nM
[29] = target: Protein kinase C delta type (Homo sapiens) (UniProt Q05655); conditions: Compound concentration 1000.0 nM
Protein kinase C delta type (Homo sapiens), sequence (Q05655 whole entry, looked up): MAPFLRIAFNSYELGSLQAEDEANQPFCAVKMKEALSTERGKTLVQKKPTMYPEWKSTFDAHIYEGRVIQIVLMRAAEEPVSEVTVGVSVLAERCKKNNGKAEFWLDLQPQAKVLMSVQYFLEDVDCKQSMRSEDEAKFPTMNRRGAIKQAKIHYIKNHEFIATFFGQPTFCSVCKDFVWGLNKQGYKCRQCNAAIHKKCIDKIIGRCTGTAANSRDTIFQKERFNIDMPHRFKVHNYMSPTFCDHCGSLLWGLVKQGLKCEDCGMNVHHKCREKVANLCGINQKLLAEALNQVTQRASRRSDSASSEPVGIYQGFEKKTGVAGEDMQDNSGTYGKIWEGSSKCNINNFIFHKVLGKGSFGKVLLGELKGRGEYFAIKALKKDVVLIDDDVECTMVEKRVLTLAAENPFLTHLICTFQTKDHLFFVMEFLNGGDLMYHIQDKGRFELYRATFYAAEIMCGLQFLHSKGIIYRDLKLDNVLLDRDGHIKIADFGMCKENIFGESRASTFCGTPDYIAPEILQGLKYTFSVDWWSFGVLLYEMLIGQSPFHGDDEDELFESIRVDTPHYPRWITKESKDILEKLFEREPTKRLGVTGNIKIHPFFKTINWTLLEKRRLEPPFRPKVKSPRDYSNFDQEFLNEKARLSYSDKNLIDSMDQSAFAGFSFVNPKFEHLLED

[30] = target: Serine/threonine-protein kinase D2 (Homo sapiens) (UniProt Q9BZL6); conditions: Compound concentration 1000.0 nM
[31] = target: cGMP-dependent protein kinase 1 (Homo sapiens) (UniProt Q13976); conditions: Compound concentration 1000.0 nM
[32] = target: cGMP-dependent protein kinase 2 (Homo sapiens) (UniProt Q13237); conditions: Compound concentration 1000.0 nM
[33] = target: Receptor-interacting serine/threonine-protein kinase 1 (Homo sapiens) (UniProt Q13546); conditions: Compound concentration 1000.0 nM
[34] = target: STE20/SPS1-related proline-alanine-rich protein kinase (Homo sapiens) (UniProt Q9UEW8); conditions: Compound concentration 1000.0 nM
[35] = target: Tyrosine-protein kinase SYK (Homo sapiens) (UniProt P43405); conditions: Compound concentration 1000.0 nM
[36] = target: Serine/threonine-protein kinase 32C (Homo sapiens) (UniProt Q86UX6); conditions: Compound concentration 1000.0 nM
[37] = target: T1, Alpha-1D adrenergic receptor (Homo sapiens) (UniProt P25100); conditions: Compound concentration 10.0 uM
T1 sequence (whole entry): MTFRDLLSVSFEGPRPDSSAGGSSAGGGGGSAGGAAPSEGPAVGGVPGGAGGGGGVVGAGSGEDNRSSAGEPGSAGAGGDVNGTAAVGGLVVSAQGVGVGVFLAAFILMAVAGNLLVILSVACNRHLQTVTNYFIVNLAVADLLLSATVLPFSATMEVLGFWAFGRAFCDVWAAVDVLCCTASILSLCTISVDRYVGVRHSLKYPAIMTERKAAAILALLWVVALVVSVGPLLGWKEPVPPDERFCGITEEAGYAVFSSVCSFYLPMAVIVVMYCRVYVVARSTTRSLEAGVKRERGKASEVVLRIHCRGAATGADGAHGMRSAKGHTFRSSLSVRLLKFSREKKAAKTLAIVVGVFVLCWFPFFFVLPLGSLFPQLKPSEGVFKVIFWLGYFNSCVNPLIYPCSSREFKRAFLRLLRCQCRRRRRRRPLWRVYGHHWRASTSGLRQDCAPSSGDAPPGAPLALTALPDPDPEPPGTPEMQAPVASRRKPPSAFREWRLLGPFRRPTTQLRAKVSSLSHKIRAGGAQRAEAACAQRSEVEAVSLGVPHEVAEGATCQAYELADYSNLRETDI

Serine/threonine-protein kinase BRSK2 (Homo sapiens), sequence (Q8IWQ3 whole entry): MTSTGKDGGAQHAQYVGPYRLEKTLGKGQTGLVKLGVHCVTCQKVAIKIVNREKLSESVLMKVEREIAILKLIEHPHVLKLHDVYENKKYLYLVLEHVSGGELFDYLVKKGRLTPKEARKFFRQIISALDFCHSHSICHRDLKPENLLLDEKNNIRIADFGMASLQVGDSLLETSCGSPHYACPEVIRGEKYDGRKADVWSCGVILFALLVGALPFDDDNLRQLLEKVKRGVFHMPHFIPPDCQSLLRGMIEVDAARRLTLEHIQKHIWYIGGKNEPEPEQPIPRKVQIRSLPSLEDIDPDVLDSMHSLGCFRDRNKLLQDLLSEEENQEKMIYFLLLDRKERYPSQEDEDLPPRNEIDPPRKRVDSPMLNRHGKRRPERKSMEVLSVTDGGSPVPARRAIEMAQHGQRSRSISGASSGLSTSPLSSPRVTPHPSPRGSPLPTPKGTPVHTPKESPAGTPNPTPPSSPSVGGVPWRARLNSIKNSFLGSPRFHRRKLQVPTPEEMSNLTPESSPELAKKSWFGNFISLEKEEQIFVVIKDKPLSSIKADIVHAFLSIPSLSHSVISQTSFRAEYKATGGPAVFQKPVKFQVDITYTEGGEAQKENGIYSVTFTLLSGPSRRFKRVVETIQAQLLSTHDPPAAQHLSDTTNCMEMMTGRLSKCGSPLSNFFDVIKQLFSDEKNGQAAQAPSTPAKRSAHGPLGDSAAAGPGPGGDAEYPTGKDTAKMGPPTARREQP
Tyrosine-protein kinase ABL1 (Homo sapiens), sequence (P00519 whole entry): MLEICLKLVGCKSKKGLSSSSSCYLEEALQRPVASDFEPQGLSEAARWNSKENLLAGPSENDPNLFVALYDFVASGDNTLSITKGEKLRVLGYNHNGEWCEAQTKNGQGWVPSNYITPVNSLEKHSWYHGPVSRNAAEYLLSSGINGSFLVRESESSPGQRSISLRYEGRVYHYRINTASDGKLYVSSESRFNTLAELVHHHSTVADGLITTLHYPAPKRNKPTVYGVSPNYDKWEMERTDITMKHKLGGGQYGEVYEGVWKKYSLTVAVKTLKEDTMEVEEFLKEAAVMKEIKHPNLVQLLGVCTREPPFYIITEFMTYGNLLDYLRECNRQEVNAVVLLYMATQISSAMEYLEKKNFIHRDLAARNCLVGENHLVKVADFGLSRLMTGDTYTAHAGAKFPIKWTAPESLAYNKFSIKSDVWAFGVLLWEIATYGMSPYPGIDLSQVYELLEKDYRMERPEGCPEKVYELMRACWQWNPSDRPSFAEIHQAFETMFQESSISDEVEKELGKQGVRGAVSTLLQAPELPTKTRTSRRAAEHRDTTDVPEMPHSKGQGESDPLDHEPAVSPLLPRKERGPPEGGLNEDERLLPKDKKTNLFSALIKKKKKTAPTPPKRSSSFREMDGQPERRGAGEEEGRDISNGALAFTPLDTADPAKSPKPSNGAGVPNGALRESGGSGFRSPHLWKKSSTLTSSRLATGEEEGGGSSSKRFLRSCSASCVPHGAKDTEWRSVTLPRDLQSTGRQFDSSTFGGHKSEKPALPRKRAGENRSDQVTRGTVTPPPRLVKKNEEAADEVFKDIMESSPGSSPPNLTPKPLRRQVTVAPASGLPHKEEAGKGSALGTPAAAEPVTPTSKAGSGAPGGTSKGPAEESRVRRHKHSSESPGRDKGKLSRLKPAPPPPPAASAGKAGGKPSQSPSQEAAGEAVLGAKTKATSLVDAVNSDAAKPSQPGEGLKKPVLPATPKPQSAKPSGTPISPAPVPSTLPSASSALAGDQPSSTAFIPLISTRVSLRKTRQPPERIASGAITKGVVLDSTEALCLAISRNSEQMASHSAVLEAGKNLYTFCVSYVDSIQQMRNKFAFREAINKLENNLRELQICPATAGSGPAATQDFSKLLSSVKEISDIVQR

Row | Structure (SMILES) | residual activity [1] | residual activity [2] | residual activity [3] | residual activity [4] | residual activity [5] | residual activity [6] | residual activity [7] | residual activity [8] | residual activity [9] | residual activity [10] | residual activity [11] | residual activity [12] | residual activity [13] | residual activity [14] | residual activity [15] | residual activity [16] | residual activity [17] | residual activity [18] | residual activity [19] | residual activity [20] | other results
1 | CC(=O)N1CCC(c2ccc(C(=O)NC3=NCCN3)cc2C(F)(F)F)CC1 [BI 0054] | 95% | 89% | 100% | 88% | 100% | 100% | 100% | 100% | 84% | 100% | 37% | 89% | 100% | 94% | 100% | 94% | 100% | 93% | 94% | 100% | residual activity [21]: 98%; residual activity [22]: 100%; residual activity [23]: 100%; residual activity [24]: 100%; residual activity [25]: 100%; residual activity [26]: 89%; residual activity [27]: 100%; residual activity [28]: 100%; residual activity [29]: 100%; residual activity [30]: 100%; residual activity [31]: 100%; residual activity [32]: 100%; residual activity [33]: 100%; residual activity [34]: 100%; residual activity [35]: 100%; residual activity [36]: 100%; inhibition [37]: 50%
2 | CC(=O)N1CCC(c2ccc(C(=O)NC(=N)N)cc2C(F)(F)F)CC1 [BI 9627] | 93% | 100% | 100% | 100% | 100% | 100% | 100% | 100% | 100% | 98% | 45% | 100% | 90% | 100% | 100% | 98% | 100% | 96% | 100% | 100% | residual activity [21]: 91%; residual activity [22]: 100%; residual activity [23]: 100%; residual activity [24]: 100%; residual activity [25]: 100%; residual activity [26]: 100%; residual activity [27]: 100%; residual activity [28]: 100%; residual activity [29]: 100%; residual activity [30]: 100%; residual activity [31]: 100%; residual activity [32]: 100%; residual activity [33]: 100%; residual activity [34]: 90%; residual activity [35]: 100%; residual activity [36]: 100%; inhibition [37]: 50%
